# Laboratory results from patent US9078907B2, “Immunoregulator compounds” (Universita Degli Studi Di Roma “Tor Vergata”, priority 2001, dated 2015).
# Assays:
# [1] = system: macrophage PLD; format: cell-based, human
# [2] = system: macrophages; assay: ROI generation by dichlorofluorescein (DCF) flow cytometry; format: cell-based, human; conditions: lipopolysaccharide stimulated cells, positive control
# Protocol: Because dichloro fluorescein (DCF) is a fluorochrome obtained from reaction of non fluorescent 2, 7-dichloro fluorescein diacetate (DCFH) with various oxidants, analysis thereof is used to detect cellular oxidative stress and amount of oxygen reactive intermediates (ROI) produced by phagocytic cells. In the used model, this analysis is employed in order to monitor the D-erythro-sphingosine 1-phosphate (S1P) modulated ROI production from macrophages. Macrophages were incubated for 90 minutes with sphingosine 1-phosphate at 0.5 μM, 5 μM, 10 μM and 50 μM concentrations. After the incubation 100 μl of 0.4 μM DCFH (Calbiochem) were added and incubated for at least 30 minutes. Finally, cells were washed with PBS and analysed using FACScan flow cytometer from Becton Dickinson.
# [3] = system: Mycobacterium smegmatis; assay: Colony forming units of M. smegmatis in differentiated THP-1 cells; format: cell-based; conditions: THP-1, M. smegmatis, S1P 5 μM; ethanol 0.3%, 0.03%, 0.003% (dose dependent) or calphostin C 10 nM
# Protocol: Human monocytic THP-1 leukemia line cells were used in this example as a model for macrophage response. In order to obtain macrophage phenotype, 5×10^5/ml THP-1 cells were induced to differentiate by 48 hours incubation in the presence of 20 ng/ml Phorbol Myristate Acetate (PMA). Differentiated THP-1 cells (dTHP-1) were then centrifuged three times and suspended in complete medium [RPMI 1640 (Gibco BRL) supplemented with 10% fetal bovine serum (Gibco BRL), 5 mM L-glutamine (Invitrogen), 1 mM sodium pyruvate (Gibco BRL) and non-essential amino acids (Euroclone)]. dTHP-1 were then infected for 3 hours with M. smegmatis at the multiplicity of infection of bacterium/cell 50:1. Following infection cells were washed three times with RPMI 1640 and incubated in complete medium at 37° C. for further 1, 12 and 24 hours in the presence or absence of sphingosine-1 phosphate used at the concentration of 5 μM.
# In order to assess the role of macrophage PLD activity in sphingosine 1-phosphate induced mycobacterial growth control, following the infection the cells were cultured in the presence of various concentrations of ethanol (0.3%, 0.03%, 0.003%) or 10 nM calphostin C. […] Inhibiting activity of calphostin C is exploited by targeting PLD catalytic domain (Sciorra V. A., Hammond S. M., Morris A. J. Potent direct inhibition of mammalian phospholipase D isoenzymes by calphostin c. Biochemistry 2001; 40: 2640-46). Just after the infection and at the indicated time points, cells were 1) lysed using cold PBS containing 0.1% saponin (Sigma, MA, USA), ii) serially diluted in PBS containing 0.01% Tween-80 (Merck, Darmstadt, Germany) and iii) plated in triplicate in Middlebrook 7H10 medium (Becton Dickinson, MD, USA) supplemented with 10% OADC formulation (0.5 mg/ml oleic acid, 50 mg/ml albumin, 20 mg/ml dextrose, 0.04 mg/ml catalase and 8.5 mg/ml sodium chloride). M. smegmatis colonies were enumerated after incubation for 3 days at 37° C.
molecule,measurement,setting,value
IFN-γ,effect of IFN-γ pre-treatment on PLD activity of infected macrophages,[1],does not modify
same,effect of IFN-γ treatment before and/or after infection on levels of macrophage PLD activity,[1],does not appear to modify
lipopolysaccharides [reference compound],DCF positive cells after stimulation,[2],increase
CCO [ethanol],mycobacterial replication after PLD inhibitor treatment of S1P treated cells,[3],increase
calphostin C,mycobacterial replication after PLD inhibitor treatment of S1P treated cells,[3],increase
